Reference: US8466172B2, “Stabilization of hypoxia inducible factor (HIF) alpha” (FibroGen, Inc., priority 2001, dated 2013)

What was measured:
[1] = tested on: vascular endothelial growth factor (VEGF); test: VEGF expression in conditioned media, QUANTIKINE immunoassay; assay type: cell-based, human; conditions: HFF, 293A and Hep3B cells
Experimental: When cell layers reached confluence, the media was replaced with OPTI-MEM media (Invitrogen Life Technologies, Carlsbad Calif.) and cell layers were incubated for approximately 24 hours in 20% O2, 5% CO2 at 37° C. Compound of the invention (one of compounds A to O) or DMSO (0.5 to 1%) was then added to existing medium, and incubation was continued overnight.
Conditioned media collected from cell cultures grown as in Example 1 was analyzed for vascular endothelial growth factor (VEGF) expression using a QUANTIKINE immunoassay (R&D Systems) according to the manufacturer's instructions. […] Values on the y-axis represent fold-induction relative to control and are reported on a log2 scale, such that a value of 1 represents 2-fold induction.

[2] = tested on: vascular endothelial growth factor (VEGF) gene expression; test: VEGF gene expression in liver and kidney, quantitative PCR; assay type: in vivo; conditions: mouse, 200 mg/kg/day oral gavage, 2.5 days, four hours after final dose
Experimental: Four hours after the final dose, animals were anesthetized with isoflurane and a blood sample was collected from the abdominal vein. […] The mice were then sacrificed and approximately 150 mg of liver and each kidney were isolated and stored in [sequence] solution (Ambion) at −20° C.
RNA isolation was carried out using the following protocol. Tissue slices were cut into small pieces, 1.75 ml of RLT lysis buffer (RNEASY kit; Qiagen) was added, and the pieces were homogenized for about 20 seconds using a rotor-stator POLYTRON homogenizer (Kinematica, Inc., Cincinnati Ohio). […] The RNA was eluted into 80 μL of water and quantitated with RIBOGREEN reagent (Molecular Probes, Eugene Oreg.). […] The absorbance at 260 and 280 nm was measured to determine RNA purity and concentration.
cDNA synthesis was performed using 1W random hexamer primers, 1 μg of total RNA, and OMNISCRIPT reverse transcriptase (Qiagen), according to the manufacturer's instructions. […] Analysis of the relative level of vascular endothelial growth factor (VEGF) gene expression was performed by quantitative PCR using a [sequence] […]
The relative level of 18S ribosomal RNA gene expression was measured as a control. Quantitative PCR was performed using a [sequence] […]

[3] = tested on: Wistar rats, toxic-ischemic liver injury; conditions: CCl4 + CPD, 9 weeks, 60 mg/kg intraperitoneal twice daily; cited from earlier work
[4] = tested on: Wistar rats, toxic-ischemic liver injury; test: Toxic-ischemic liver injury (CCl4); assay type: in vivo, rat; conditions: 9 weeks
Experimental: The model of toxic-ischemic liver injury was described in Bickel et al. (supra). Briefly, male Wistar rats (212-320 g) either received 1 ml/kg carbon tetrachloride (CCl4) in olive oil (1:1) by gavage twice weekly for nine weeks (n=140) or received no treatment (controls; n=10). Additionally, a group of animals receiving CCl4 (n=60) also received compound P. The compound was administered by intraperitoneal injection twice daily at 60 mg compound/2 ml saline/kg body weight. After 9 weeks, the animals were sacrificed and the liver was weighed. Bilirubin, alanine transaminase, alkaline phosphatase, albumin, and total bile acids in serum were determined using commercially available kits.

[5] = tested on: Wistar rats, myocardial infarction; conditions: one week after surgery
Experimental: Male Wistar rats (100-110 g), aged 4-5 weeks, were kept on a regular diet and a 12 hour day-night cycle. […] Animals were treated for two days prior to surgery and for one week following surgery. […] Ligation of the left anterior descending coronary artery was performed in artificially ventilated animals after left thoracotomy. Animals were sacrificed one week after surgery and echocardiography was performed. Fractional shortening, end-diastolic diameters, and end-systolic diameters were determined in a blinded fashion.

aldolase = conditions: 293A cells
Experimental: Alternatively, human cells derived from adenovirus-transformed fetal kidney epithelium (293A) were cultured in DMEM, 5% FBS, 1% Penicillin-Streptomycin at 37° C. and 10% CO2. […] Culture supernatant was then removed, the plates were placed on ice, lysis buffer (LB)-1 was added and the cells were harvested by scraping. The scraped cells were collected and incubated for 15 minutes on ice followed by centrifugation at 3000 g for 5 minutes at 4° C. The supernatant, which represents the cytosolic fraction, was collected and cytosolic proteins were separated under denaturing and reducing conditions using SDS polyacrylamide gels that were loaded with equal amounts of protein per lane.
Gel electrophoresis was conducted at 150 V for 2 hours, and after SDS-PAGE the proteins were transferred to a PVDF membrane for 1.5 hours at 400 mA at 4° C. The membrane was then incubated in blocking buffer, washed once with T-TBS, and then anti-aldolase antibody diluted to working concentration in blocking buffer was added and the blots were incubated over night with gentle agitation at 4° C. The membrane was then washed 4 times with T-TBS, followed by incubation for one hour at room temperature with blocking buffer containing labeled secondary antibody. The membrane was then washed four times with T-TBS. […]

Q: For CC(C)Oc1ccc2nc(C(=O)NCC(=O)O)c(O)cc2c1 [Compound H, N-((3-hydroxy-6-isopropoxy-quinoline-2-carbonyl)-amino)-acetic acid], which “VEGF expression in conditioned media (FIG. 4A)” value (“VEGF expression … (FIG. 4A)” below) [1] is on record?
A: increase in VEGF expression

Q: For COc1cc2cccnc2c2[nH]cc(C(=O)O)c(=O)c12 [Compound Q, 5-methoxy-4-oxo-1,4-dihydro-[1,10]phenanthroline-3-carboxylic acid], which “VEGF expression … (FIG. 4A)” value [1] is on record?
A: increase in VEGF expression

Q: For O=[N+]([O-])c1ccnc2c(O)cccc12 [Compound E, 4-nitro-quinolin-8-ol], which “VEGF expression in kidney (FIG. 6A)” value [2] is on record?
A: increased VEGF expression

Q: For O=C(O)CNC(=O)c1nc(Cl)c2cc(OCc3ccccc3)ccc2c1O [Compound L, N-((7-benzyloxy-1-chloro-4-hydroxy-isoquinoline-3-carbonyl)-amino)-acetic acid], which “VEGF expression … (FIG. 4A)” value [1] is on record?
A: increase in VEGF expression

Q: Which “VEGF expression … (FIG. 4A)” value [1] does the source give for COC(=O)CNC(=O)c1nc(Cl)c2cc(OCc3ccccc3)ccc2c1O [Compound K, ((7-benzyloxy-1-chloro-4-hydroxy-isoquinoline-3-carbonyl)-amino)-acetic acid methyl ester] here?
A: increase in VEGF expression

Q: Which “ALT (serum alanine transaminase)” value [3] does the source give for COc1cccnc1C(=O)NCC(=O)O [Compound P, [(3-methoxy-pyridine-2-carbonyl)-amino]-acetic acid] here?
A: 59.0 ± 29.5 U/L

Q: What about the “AP (serum alkaline phosphatase)” value [3] of the same compound?
A: 195 ± 72.7 U/L

Q: And the “BR (serum bilirubin)” value [3]?
A: 2.83 ± 2.21 µmol/L

Q: And the “BW (body weight)” value [3]?
A: 373 ± 38.9 g

Q: And the “tBA (serum total bile acids)” value [3]?
A: 40.8 ± 51.4 µmol/L

Q: What about the “decrease in serum level of ALT in the treated group relative to the untreated group” value [4] of the same compound?
A: 43%

Q: What about the “decrease in serum level of AP in the treated group relative to the untreated group” value [4] of the same compound?
A: 65%

Q: And the “decrease in serum level of BR in the treated group relative to the untreated group” value [4]?
A: 64%

Q: What about the “decrease in serum level of tBA in the treated group relative to the untreated group” value [4] of the same compound?
A: 65%

Q: Which “increase in end-diastolic diameter over sham operated animals” value [5] does the source give for O=C(O)CNC(=O)c1nc(Cl)c2ccccc2c1O [Compound B, N-((1-chloro-4-hydroxy-isoquinoline-3-carbonyl)-amino)-acetic acid] here?
A: 18%

Q: And the “increase in left ventricular end-systolic diameter over sham operated animals” value [5]?
A: no increase

Q: What about the “fractional shortening (FIG. 12A)” value ([5]; 50 mg/kg oral gavage two times per day from two days prior to surgery) of the same compound?
A: 41%

Q: And the “VEGF expression … (FIG. 4A)” value [1]?
A: increase in VEGF expression

Q: What about the “expression of aldolase over time (FIG. 4B)” value (aldolase) of the same compound?
A: increased expression of aldolase

Q: And the “VEGF expression in kidney (FIG. 6A)” value [2]?
A: increased VEGF expression

Q: Which “VEGF expression … (FIG. 4A)” value [1] does the source give for COc1ccc(CCN(CCC(=O)NO)S(=O)(=O)c2ccc(NC(=O)N(Cc3ccccc3)Cc3ccccc3)cc2)cc1 [Compound C, 3-{[4-(3,3-dibenzyl-ureido)-benzenesulfonyl]-[2-(4-methoxy-phenyl)-ethyl]-amino}-N-hydroxy-propionamide] here?
A: increase in VEGF expression
